Reference: patent publication US5380759A, “Methyl N-[6-(3,4,5-trimethoxybenzloxy)imidazo[1,2-b]pyridazin-2-zyl]carbamate used to treat leukemia” (priority 1987, dated 1995)
Like-named read-outs stand apart in the source and are kept apart here.

How the values were obtained:
P388/O tumour = assay: Lymphocytic leukaemia P388/O test; format: in vivo, mouse
Protocol: C. Lymphocytic Leukemia P388/O Test
CD2-F1 mice, of the same sex, weighing within a 3 gram range surrounding 20 g, are used for this test. Control and test animals are injected intraperitoneally with a suspension of 10^6 viable P388/O tumour cells on day 0. In each test several dose levels which bracket the LD20 for the compound are evaluated; each dose level group contains 6 animals. The test compounds are prepared either in physiologic saline containing 0.05% Tween 80 or distilled water containing 5% dextrose and are administered intraperitoneally on days 1,5 and 9 relative to tumour implant. Doses are on a mg/kg basis according to individual animals' body weights. The day of death for each animal is recorded and the median day of death identified for each group. The difference between the median survival time for treated and control groups is expressed as a percentage increase in life span (% ILS).

tubulin = assay: Turbidimetric assay of tubulin polymerisation; format: biochemical, horse; conditions: 37° C., increase in A350nm 10 min after lag phase; read-out: Total tubulin polymerisation IC50
Protocol: A) Tubulin Polymerisation Assay
1. Preparation of tubulin
All manipulations are performed at 4° C. unless otherwise specified. The horse brain is washed in ice-cold BBG buffer and superficial meninges and blood vessels removed. After weighing, cerebral cortices are chopped, homogenised in 75 ml BBG buffer/100 g brain, centrifuged at 6500 g for 15 min and after removal of […], re-centrifuged at 100,000 g for 75 min. The volume of the supernatant (Vml) is measured and V/10 ml 10 mM GTP (Li salt) in H2 O added. The mixture is incubated in sealed centrifuge tubes (30 min, 34° C.) in a shaking water bath to polymerise the tubulin. After polymerisation the tubes are balanced and centrifuged at 100,000 g, (1 h at 27° C.) in a pre-warmed rotor. The high-speed pellet is resuspended in V/4 ml BB buffer and the preparation stirred on ice for 30 min and centrifuged at 100,000 g (1 h at 4° C.) to remove the cold-stable microtubules. An equal volume of BB2G buffer is added to the supernatant which is frozen rapidly in 5 ml samples in plastic weighing dishes floated on a solid CO2 /ethanol slurry, and stored overnight at -80° C. After ca. 18 hours the frozen samples of tubulin are thawed, 10 mM GTP in H2 O added to give a final concentration of 1 mM, and the new volume (Wml), is measured. The polymerisation/depolymerisation cycle is repeated exactly as above but substituting W for V to give twice-cycled tubulin.
2. Turbidimetric Assay of Tubulin Polymerisation
Apparatus: recording spectrophotometer with a 6-position, thermostatted cuvette holder; full scale deflection=0.2 absorbance units.
In a 1 ml spectrophotometer cuvette are mixed 100 μl 10 mM GTP (Li salt) made up in BB buffer, 10 μl H2 O or DMSO-depending on selected drug solvent, BB buffer and tubulin preparation such that the final increase in A350nm is 0.15 units after 16 mins (approx. 100 μl of tubulin prep. or 2.5 mg protein) in a final volume of 1 ml at 37° C. All reagents are stored on ice.
Polymerisation is initiated by raising the temperature to 37° C. and the increase in A350nm of triplicate samples against a reference cuvette is recorded. The reference sample includes a similar incubation mixture either without tubulin or with the addition of 1 mM Ca^2+. The increase over initial A350nm 10 min after the completion of lag phase (control polymerisation is 80% complete within this time) is calculated and expressed as a percentage of the control value, for a range of drug concentrations. The drug concentration required to give a 50% change (IC50) in the control value is determined.

P388 D1 cells = assay: P388 D1 colony-forming assay; format: cell-based; conditions: Mus musculus
Protocol: B) P338D1 Colony-forming Assay
In this assay, cells from an in vitro-adapted line of the mouse lymphoid neoplasm, P388 are first exposed to serially diluted concentrations of test compound over a 24 hour period in culture. Thereafter, the ability of such treated cells to form discrete colonies over a 14 day period after resuspension in a semi-solid drug-free medium is determined.
Initially cells in log growth are plated into individual 25 cm^2 tissue culture flasks each containing a final volume of 5 mls of Hepes buffered RPMI 1640 culture medium supplemented with 10 percent foetal calf serum, antibiotics and test compound. All compounds are formulated initially at appropriate concentrations in DMSO, 25 microliters of which is then added to each flask. All compounds are evaluated at concentrations ranging serially in four fold decrements from a top concentration some four fold greater than that already known to inhibit the proliferation of these cells by about 80 to 90 percent in the primary proliferative assay.
After 24 hrs exposure to the test compound the cells are counted and a known number of live cells transferred to a 15 ml centrifuge tube to which 4 mls of a 0.25 percent low temperature gelling agarose solution in complete RPMI tissue culture medium is then added. After 13 days incubation at 37° C., 1 ml of 1% p-Iodonitrotetrazolium violet is added to the top of each tube and allowed to permeate through the agarose for a further 24 to 48 hrs. This dye is metabolised by living cells to produce an insoluble red crystalline product which facilitates counting of the colonies. Samples are taken from each tube and the number of colonies containing a minimum of 50 cells is determined. The concentration of compound necessary to inhibit colony formation by 50 percent relative to that of control cells incubated under identical conditions but in the absence of the test compound is determined.

LD20 (Mouse) = format: in vivo; conditions: i.p. days 1, 5 and 9, CD2-F1 mice, observed up to 14 days
[1] = tested on: DLD-1 human colon carcinoma cells; assay: In vitro activity against human tumour cell line DLD-1 (proliferation); format: cell-based; conditions: DLD-1, 96 h
Protocol: (§1) Cells from the human tumour cell lines DLD-1, HCT-116, WiDr and A549 are exposed to serially diluted concentrations of test compounds over a 96 hour period in culture. The ability of such cells to proliferate over the test period is determined.
(§2) Cells in log growth are plated into 96 well multiwell tissue culture dishes in 100 μl/well of RPMI 1640 culture medium supplemented with 10% foetal calf serum, antibiotics and test compound. All compounds are formulated initially at appropriate concentrations in DMSO, the final concentrations in this solvent being twenty times that required in the plate. A final 1 in 10 dilution in complete medium is then made before adding 100 μl to each well of the plate. All compounds are evaluated at concentrations ranging serially in four fold decrements from a top concentration some four fold greater than that already known to inhibit the proliferation of cells from the mouse lymphoid neoplasm, P388D1 by about 80 to 90 percent in a primary proliferative assay.
(§3) After 96 hours the proliferation of cells exposed to test compound is compared with control untreated cells by one of two methods:
a) Culture supernatants are aspirated and cells fixed and stained by adding a solution of methylene blue (5 g per liter of 50% ethanol: water, 100 μl/well). After 30 minutes at room temperature unbound stain is washed off by immersing plates in water. Stained cells are solubilised overnight using 1% Sarkosyl (Sigma) in phosphate-buffered saline (100 μl/well). Absorbances are read by an ELISA plate spectrophotometer at a wavelength of 620 nm. The IC50 is defined as that concentration of drug which decreases absorbance to 50% of that in control (drug-free) cultures. This method is used for the DLD-1 cell line.

[2] = tested on: WiDr human colon adenocarcinoma cells; assay: In vitro activity against human tumour cell line WiDr (proliferation); format: cell-based; conditions: 96 h
Protocol: as §1, §2, §3
(§4) b) 20 μl of MTT (5 mg/ml in PBS) is added to each well. After an incubation period of 4 hours the medium from each well is aspirated and replaced with 200 μl DMSO to dissolve the formazan crystals formed. Absorbances are read by an ELISA plate spectrophotometer at a wavelength of 540 nm. The IC50 is defined as that concentration of drug which decreases absorbance to 50% of that in control (drug-free) cultures. This method is used for the WiDr, HCT-116 and A549 cell lines.

[3] = tested on: HCT-116 human colon carcinoma cells; assay: In vitro activity against human tumour cell line HCT-116 (proliferation); format: cell-based; conditions: HCT-116, 96 h
Protocol: as §1, §2, §3, §4

[4] = tested on: A549 human lung carcinoma cells; assay: In vitro activity against human tumour cell line A549 (proliferation); format: cell-based; conditions: A549, 96 h
Protocol: as §1, §2, §3, §4

[5] = Mus musculus, P388, ip, 200 mg/kg i.p. days 1, 5 and 9
[6] = P388D1, 24 h exposure, 14 days colony growth, read-out: IC50 colony formation
[7] = Mus musculus, P388, ip, 675 mg/kg i.p. days 1, 5 and 9

SMILES: CCOc1c(OC)cc(COc2ccc3nc(NC(=O)OC)cn3n2)cc1OC [Example 33, Methyl N-[6-(3,5-dimethoxy-4-ethoxybenzyloxy)imidazo[1,2-b]pyridazin-2-yl]carbamate]
- 60 Day Survivors (P388/O tumour; (Day 51), 200 mg/kg i.p. days 1, 5 and 9): 3/6
- ILS at 200 mg/kg (P388/O tumour; [5]): 240%

SMILES: COCCOC(=O)Nc1cn2nc(OCc3cc(OC)c(OC)c(OC)c3)ccc2n1 [Example 8, 2-Methoxyethyl N-[6-(3,4,5-trimethoxybenzyloxy)imidazo[1,2-b]pyridazin-2-yl]carbamate]
- IC50 (tubulin): 230 nM
- IC50 (P388 D1 cells; [6]): 2.93 nM
- ILS at 10 mg/kg (P388/O tumour; Mus musculus, P388, ip, 10 mg/kg i.p. days 1, 5 and 9): 44%
- LD50 (LD20 (Mouse)): 15 mg/kg
- IC50 ([1]; methylene blue, read-out: IC50): 8.82 nM
- IC50 ([2]; MTT, read-out: IC50): 41 nM
- IC50 ([3]; MTT, read-out: IC50): 20.5 nM
- IC50 ([4]; MTT, read-out: IC50): 39 nM

SMILES: COC(=O)Nc1cn2nc(OCc3cccc(C)c3)ccc2n1 [Example 12, Methyl N-[6-(3-methylbenzyloxy)imidazo[1,2-b]pyridazin-2-yl]carbamate]
- IC50 (tubulin): 1210 nM
- ILS at 675 mg/kg (P388/O tumour; [7]): 170%
- LD50 (LD20 (Mouse)): > 450 mg/kg

SMILES: COC(=O)Nc1cn2nc(OCc3cc(OC)ccc3OC)ccc2n1 [Example 3, Methyl N-[6-(2,5-Dimethoxybenzyloxy)imidazo[1,2-b]pyridazin-2-yl]carbamate]
- IC50 (tubulin): 410 nM
- IC50 (P388 D1 cells; [6]): 2.15 nM
- ILS at 50 mg/kg (P388/O tumour; Mus musculus, P388, ip, 50 mg/kg i.p. days 1, 5 and 9): 136%
- LD50 (LD20 (Mouse)): 200 mg/kg
- IC50 ([1]; methylene blue, read-out: IC50): 1.35 nM
- IC50 ([2]; MTT, read-out: IC50): 0.92 nM
- IC50 ([3]; MTT, read-out: IC50): 1.91 nM
- IC50 [4]: 1.92 nM

SMILES: COC(=O)Nc1cn2nc(OCc3cc(OC)c(OC)c(OC)c3Br)ccc2n1 [Example 31, Methyl N-[6-(2-bromo-3,4,5-trimethoxybenzyloxy)imidazo[1,2-b]pyridazin-2-yl]carbamate]
- LD50 (LD20 (Mouse)): 165 mg/kg

SMILES: COC(=O)Nc1cn2nc(OCc3cccc(OC)c3OC)ccc2n1 [Example 32, Methyl N-[6-(2,3-dimethoxybenzyloxy)imidazo[1,2-b]pyridazin-2-yl]carbamate]
- 60 Day Survivors (P388/O tumour; 750 mg/kg i.p. days 1, 5 and 9): 1/6
- ILS at 750 mg/kg (P388/O tumour; Mus musculus, P388, ip, 750 mg/kg i.p. days 1, 5 and 9): 280%
- LD50 (LD20 (Mouse)): > 450 mg/kg

SMILES: CCCOC(=O)Nc1cn2nc(OCc3cc(OC)c(OC)c(OC)c3)ccc2n1 [Example 4, n-Propyl N-[6-(3,4,5-trimethoxybenzyloxy)imidazo[1,2-b]pyridazin-2-yl]carbamate]
- IC50 (tubulin): 370 nM
- IC50 (P388 D1 cells; [6]): 5.12 nM
- ILS at 20 mg/kg (P388/O tumour; Mus musculus, P388, ip, 20 mg/kg i.p. days 1, 5 and 9): 44%
- LD50 (LD20 (Mouse)): 20 mg/kg
- IC50 ([1]; methylene blue, read-out: IC50): 6.63 nM
- IC50 ([2]; MTT, read-out: IC50): 11 nM
- IC50 ([3]; MTT, read-out: IC50): 5.45 nM
- IC50 ([4]; MTT, read-out: IC50): 20.8 nM

SMILES: COC(=O)N(C)c1cn2nc(OCc3cc(OC)c(OC)c(OC)c3)ccc2n1 [Example 26, Methyl N-[N-Methyl-6-(3,4,5-trimethoxybenzyloxy)imidazo[1,2-b]pyridazin-2-yl]carbamate]
- ILS at 300 mg/kg (P388/O tumour; Mus musculus, P388, ip, 300 mg/kg i.p. days 1, 5 and 9): 263%
- LD50 (LD20 (Mouse)): 450 mg/kg

SMILES: CCOC(=O)Nc1cn2nc(OCc3cc(OC)ccc3OC)ccc2n1 [Example 2, Ethyl N-[6-(2,5-Dimethoxybenzyloxy)imidazo[1,2-b]pyridazin-2-yl]carbamate]
- IC50 (tubulin): 140 nM
- IC50 (P388 D1 cells; P388D1, read-out: IC50 colony formation): 0.516 nM
- ILS at 7.3 mg/kg (P388/O tumour; Mus musculus, P388, ip): 31%
- LD50 (LD20 (Mouse)): 5 mg/kg
- IC50 [1]: 2.9 nM
- IC50 [2]: 4.57 nM
- IC50 [3]: 2.8 nM
- IC50 [4]: 3.42 nM

SMILES: COC(=O)Nc1cn2nc(OCc3cc(OC)cc(OC)c3)ccc2n1 [Example 11, Methyl N-[6-(3,5-Dimethoxybenzyloxy)imidazo[1,2-b)pyridazin-2-yl]carbamate]
- IC50 (tubulin): 4240 nM
- IC50 (P388 D1 cells; [6]): 41 nM
- 30 Day survivors (P388/O tumour; 675 mg/kg i.p. days 1, 5 and 9): 1/6
- 60 Day Survivors (P388/O tumour; 675 mg/kg i.p. days 1, 5 and 9): 0/6
- ILS at 675 mg/kg (P388/O tumour; [7]): 155%
- LD50 (LD20 (Mouse)): > 450 mg/kg

SMILES: COC(=O)Nc1cn2nc(OCc3cccc4ccccc34)ccc2n1 [Example 9, Methyl N-[6-(1-Naphthylmethyloxy)imidazo[1,2-b]pyridazin-2-yl]carbamate]
- IC50 (tubulin): 890 nM
- ILS at 200 mg/kg (P388/O tumour; [5]): 180%
- LD50 (LD20 (Mouse)): 450 mg/kg
